Laboratory results from paper PMC8132061, “An Insulin‐Inspired Supramolecular Hydrogel for Prevention of Type 1 Diabetes” (Advanced Science, 2021).
Non-standard residues stand in square brackets, D forms with d. Residues, ends and D or L forms follow the SMILES beside them. *: point of attachment. Acetyl(2-naphthyl) = O=C(Cc1ccc2ccccc2c1)*

Columns and labels:
[1] = target: human insulin receptor protein (Homo sapiens, UniProt P06213); test: Microscale thermophoresis (MST) binding to insulin receptor; settings: Monolith NT.115, Recombinant Human Insulin R/CD220 (aa 28-944), 37 °C, read-out: dissociation constant (K D) to human insulin receptor protein
Experimental: 2‐Cl‐trityl chloride resin (1.1 mmol g^−1) was obtained from Nankai University resin Co., Ltd. Fmoc‐amino acids and o‐benzotriazol‐1‐yl‐N,N,N′,N′‐tetramethyluronium hexafluorophosphate (HBTU) were acquired from GL Biochem (Shanghai). Hydogels were prepared and respective endotoxin levels of formula were tested as previously reported.^[ ^23 , ^24 ^] Ins2_9‐23 peptide (SHLVEALYLVCGERGR; endotoxins <1 EU mg^−1) was supplied by Bankpeptide (Hefei, China). The BD Pharmingen FoxP3 staining kit was from (BD Biosciences, Beijing, China). Aluminum hydroxide was purchased from Sigma‐Aldrich (Shanghai, China). Antibodies used for flow cytometry analysis were purchased from eBioscience (CA, USA) and antibodies used for immunofluorescence staining were obtained from Abcam (Shanghai, China). Cytokine chip microarray was performed by Beijing Genomics Institute (Beijing, China). Recombinant Human Insulin R/CD220 (aa 28‐944) Protein was ordered from R&D Systems (Shanghai, China). Mouse Insulin EZRMI‐13 ELISA kit was from Millipore (Merck, UK). […]
All peptides in the study were synthesized by standard solid‐phase peptide synthesis (SPPS), and purified by high performance liquid chromatography (HPLC). […] CD spectrum were measured by a BioLogic (MOS‐450) system. […] The release behaviors of peptides was analyzed by liquid chromatograph (LC2020). […]

[2] = In vivo retention of Cy5.5-labeled hydrogel/formula (fluorescence imaging); settings: 50 µL subcutaneous inguinal, 8-weeks old female NOD mice, imaged every 6 h at 640 nm excitation
Experimental: 8‐weeks old female NOD mice were subcutaneously injected with a volume of 50 µL Cy5.5‐labeled peptide hydrogels/formulas in inguinal region. In vivo peptide retention was observed every 6 h at 640 nm excitation wavelength via Cri Maestro In‐vivo imaging System (Xenogen, IVIS Lumina II).

[3] = system: OVA-induced immune responses; settings: ref 16a; cited from earlier work
Text: Poor tolerance induction was also observed from the Nap‐GFFY group (Figure 2A, red dotted line; 60% T1D onset). […] In the present study, when both isoforms of Nap‐GFFY were used, the lack of stability and adjuvant potency of L‐GFFY resulted both in reduced antigenic and adjuvant impact, rendering the Nap‐GFFY formulation less eff ... || Supramolecular peptide hydrogel has, in the past 5 years, been extensively investigated as immune adjuvant to improve efficacy of antigen presentation. By using peptide hydrogel, which functions both as antigen depot and immune adjuvant, it eliminates the likely protein‐induced hypersensitivity in vivo and the need for additional adjuvant^[ ^15 , ^37 ^] […] Because the peptide sequence GFFY is conserved in multiple self‐antigens of autoimmune diabetes, we now have assessed its poten ...

[4] = Gelation test and TEM of hydrogels/formulas; type: physicochemical; settings: after heating-cooling
Text: We first tested the gelation properties of Nap‐G^dF^dF^dY and controlled peptides (Nap‐GFFY, Nap‐^dF^dF, Nap‐G^dF^dA^dY, and Ac‐G^dF^dF^dY). […] The nanostructures of these hydrogels and solutions were subsequently observed by transmission electron microscopy (TEM). […] The diameter of its nanofiber was about 12 nm. […] Insulin mimicking requires a specific conformation of the self‐assembled peptide Nap‐G^dF^dF^dY for in vivo performance, indicating a secondary structure examination is required. We obtained the circular dichroism (CD) spectrum of peptide within the hydrogel at 37 °C.
(§1) All peptides in the study were synthesized by standard solid‐phase peptide synthesis (SPPS), and purified by high performance liquid chromatography (HPLC). Hydrogels/formulas were prepared by heating–cooling method. Negative staining technique was used to observe the nanostructures of materials by using TEM (HITACHI HT7700 Exalens). CD spectrum were measured by a BioLogic (MOS‐450) system. Rheology test was carried out on an AR 2000ex system (TA instrument). The release behaviors of peptides was analyzed by liquid chromatograph (LC2020). Microscale thermophoresis and analysis of binding force was performed by using the Monolith NT.115 system (NanoTemper Technologies, Germany). All samples were tested at the temperature of 37 °C.

[5] = Peptide release from hydrogel/solution; type: physicochemical; settings: within 12 h, 37 °C, LC (LC2020)
Experimental: as §1

T1D onset in NOD mice = test: T1D prevention study, incidence of T1D onset; type: in vivo, female NOD mice; settings: 1 mg mL^-1, 50-70 µL s.c. once a week for 5 weeks from 3 weeks of age
Experimental: Female NOD mice were inoculated with different hydrogel formulations 3 weeks of age. PBS and aluminum hydroxide+Ins2_9‐23 (Alum+Ins2_9‐23) were used as negative and positive controls, respectively. Random blood glucose (RBG) levels were measured weekly and mice with RBG levels above 11.1 mmol L^−1 for more than 3 consecutive weeks were considered “diabetic” in the present study.

pancreatic islets = test: Immunofluorescence of pancreatic islets (morphology, immune cell infiltration), prevention study; type: in vivo, NOD mice
Experimental: Female NOD mice (3 weeks of age) were immunized subcutaneously under the front left leg with Nap‐G^dF^dF^dY, Nap‐GFFY, Nap‐G^dF^dA^dY, Nap‐^dF^dF, Ac‐G^dF^dF^dY (1 mg mL^−1, 50–70 µL), and Alum+Ins2_9‐23 (50 µg) and endotoxin‐free PBS once a week for 5 consecutive weeks (from 3‐weeks old to 7‐weeks old) and maintained in specific pathogen free facilities for up to 36 or 52 weeks (n = 3–10 per group). Random plasma glucose level and body weight of all mice were noted weekly from week 8 till the end of experiment with an OneTouch Ultra blood glucose meter (Lifescan Inc., Milpitas, CA, USA). Mice were classified as diabetic if random plasma glucose level exceeded 11.1 mmol L^−1 for 3 consecutive weeks. IPGTT was performed in all treatment groups at week 14, week 20, and week 36. Serum samples were obtained from all mice at the age of week 14, week 20, and week 36 for cytokine chip microarray, which was performed by the Beijing Genomics Institute. Serum insulin level was determined in 10 µL serum samples of each animal using a mouse insulin ELISA kit according to the manufacture's instruction.
Immunofluorescence staining was performed following procedures that were previously detailed.^[ ^18b,c ^] Pancreas were extracted and paraffin‐embedded before being sectioned (5 µm width) onto microscopic slides. For immunofluorescence staining, antigen retrieval was performed followed by exposure to primary antibodies at 4 ℃ overnight. The pancreas sections were then washed with PBS and staining with secondary antibody for 1–2 h at room temperature and examined under a fluorescence microscope (Olympus BX3‐25ND25, Japan).

[6] = system: bone marrow derived dendritic cells (BMDCs); design: method as in PMID 31244959; settings: ref 16b; cited from earlier work

| Kd [1] [µM] | in vivo retention time (fluorescence signal) [2] | Compound | in vivo stability vs L-isoform Nap-GFFY [3] | gelation property [4] | peptide released from gel [5] | T1D onset (T1D onset in NOD mice) [%] | islet immune cell infiltration (pancreatic islets; immunofluorescence, prevention study) | immune cell infiltration per islet over Nap-G^dF^dF^dY (pancreatic islets; over Nap-G^dF^dF^dY, p < 0.01) [% over Nap-GdFdFdY] | average % of immune cell infiltration per islet (pancreatic islets; per islet, mean ± s.e.m., n = 5-20) [% per islet] | CD40/CD80 expression on BMDCs [6] | TNF-α in cell culture supernatant of BMDCs [6] |
| --- | --- | --- | --- | --- | --- | --- | --- | --- | --- | --- | --- |
| 53.9 | about 36 h | O=C(Cc1ccc2ccccc2c1)NCC(=O)N[C@H](Cc1ccccc1)C(=O)N[C@H](Cc1ccccc1)C(=O)N[C@H](Cc1ccc(O)cc1)C(=O)O [Nap‐G^dF^dF^dY] ({Acetyl(2-naphthyl)}-G[dF][dF][dY]-OH) | preferentially more stable in vivo | – | – | – | – | – | – | – | – |
| – | about 30 h | O=C(Cc1ccc2ccccc2c1)N[C@H](Cc1ccccc1)C(=O)N[C@H](Cc1ccccc1)C(=O)O [Nap‐^dF^dF] | – | – | – | – | – | – | – | – | – |

| Compound | Kd [1] [µM] | in vivo retention time (fluorescence signal) [2] | in vivo stability vs L-isoform Nap-GFFY [3] | gelation property [4] | peptide released from gel [5] | T1D onset (T1D onset in NOD mice) [%] | islet immune cell infiltration (pancreatic islets; immunofluorescence, prevention study) | immune cell infiltration per islet over Nap-G^dF^dF^dY (pancreatic islets; over Nap-G^dF^dF^dY, p < 0.01) [% over Nap-GdFdFdY] | average % of immune cell infiltration per islet (pancreatic islets; per islet, mean ± s.e.m., n = 5-20) [% per islet] | CD40/CD80 expression on BMDCs [6] | TNF-α in cell culture supernatant of BMDCs [6] |
| --- | --- | --- | --- | --- | --- | --- | --- | --- | --- | --- | --- |
| Nap‐GFFY | – | about 30 h | – | could swiftly form transparent hydrogels | about 40% | 60 | substantial immune cell infiltration | 248 ± 25 | 38.5 ± 3.8 | significant increase expression of CD40/CD80 | elevated |
